Source: patent US20220356147A1, “COMPOUNDS AND METHODS FOR POTENTIATING COLISTIN ACTIVITY” (University of Notre Dame du Lac, priority 2019, published 2022)
Values joined by “and” are separate entries in the source; they are usually repeats but may differ in a detail not shown here. Equal entries are not always repeated. Where two headings read alike, the source gives them in different places.

What was measured:
AB 4106 = assay: Broth microdilution, standalone MIC of compound; format: cell-based, A. baumannii; details: standalone, no colistin, read-out: MIC of compound alone, AB 4106
Experimental: Broth microdilution method for the determination of minimum inhibitory concentrations: Bacteria were cultured for 4 to 6 hours in CAMHB and subcultured to 1.04×10^6 CFU/mL for AB 4106 and 1.96×10^6 CFU/mL for KP B9 in fresh CAMHB. To aliquots (1 mL) was added compound from stock solutions in DMSO, such that the compound concentration equaled the highest concentration tested. Samples were then dispensed (200 μL) into the first row of a 96-well microtiter plate in which all but the final row of subsequent wells were prefilled with 100 μL of the untreated bacterial subculture. The final row was filled with media to act as a sterility control and blank. Row one wells were mixed 6-7 times, then, 100 μL was withdrawn and transferred to row two. Row two wells were mixed 6-7 times followed by a 100 μL transfer from row two to row three. This procedure was used to serially dilute the rest of the rows of the microtiter plate, excluding the last prefilled row, which was used to measure growth in the absence of compound. Plates were then sealed with GLAD Press'n Seal and incubated under stationary conditions at 37 C. […] MIC values were determined as the minimum concentration required to achieve 90% growth inhibition compared to growth in untreated wells.

AB4106 and KPB9 = assay: Initial screen for colistin resistance suppression, statements in words for both strains; format: cell-based, A. baumannii and K. pneumoniae; details: compound at 5 μM
Experimental: (§1) Broth microdilution method for measurement of colistin potentiation: Bacteria were cultured for 4 to 6 hours in CAMHB and diluted to 1.04×10^6 CFU/mL for AB 4106 and 1.96×10^6 CFU/mL for KP B9 in fresh CAMHB. To aliquots (4 mL) was added compound from stock solutions in DMSO. One aliquot was not dosed to allow measurement of the colistin MIC in the absence of compound. A 1 mL aliquot of each sample was dosed with colistin, and from this 200 μL was dispensed into the first row of a 96-well microtiter plate in which all but the final row of subsequent wells was prefilled with 100 μL of the corresponding compound dosed bacterial suspension The final row was filled with media to act as a sterility control and blank. Row one wells were mixed 6-7 times, then, 100 μL was withdrawn and transferred to row two. Row two wells were mixed 6-7 times followed by a 100 μL transfer from row two to row three. This procedure was used to serially dilute the rest of the rows of the microtiter plate, excluding the last prefilled row, which was used to measure growth in the presence of compound alone. Plates were then sealed with GLAD
(§2) Press'n Seal and incubated under stationary conditions at 37° C. […] MIC values were determined as the minimum concentration required to achieve 90% growth inhibition compared to growth in untreated wells.

[1] = tested on: A. baumannii 4106 (AB4106); assay: Broth microdilution, colistin potentiation; format: cell-based
Experimental: as §1, §2

K. pneumoniae B9 (KPB9) = assay: Broth microdilution, colistin potentiation; format: cell-based; design: Colistin MIC against KPB9: unit not given here
Experimental: as §1, §2

AB 3941 = assay: Colistin potentiation, colistin-resistant isolate panel; format: cell-based, A. baumannii
AB 4112 = assay: as above; format: cell-based, A. baumannii
AB 4119 = assay: as above; format: cell-based, A. baumannii
AB 17978 mcr-1 = assay: as above; format: cell-based, A. baumannii
AB 3942 = assay: as above; format: cell-based, A. baumannii
[2] = compound at 5 μM, colistin alone 2048 μg/mL
[3] = in presence of compound at 1 μM
[4] = in presence of compound at 3 μM
[5] = in presence of compound at 5 μM

Compound	MIC (AB 4106; Acinetobacter baumannii, 16 h) [µM]	Colistin potentiation activity in words, compared to IMD-0354 (AB4106 and KPB9)	Colistin MIC fold reduction, AB 4106 ([1]; compound at 1 μM) [fold]	Colistin MIC fold reduction, AB 4106 ([1]; compound at 3 μM) [fold]	Colistin MIC fold reduction, AB 4106 [1, 2] [fold]	further results
O=C(Nc1cc(C(F)(F)F)cc(C(F)(F)F)c1)c1cc(I)ccc1O [Compound 10]	> 200	essentially equipotent activity to IMD-0354	128	1024	4096	Colistin potentiation activity in words, AB4106 ([1]; compound at 5 μM): superior activity to IMD-0354; Colistin potentiation activity in words, KPB9 (K. pneumoniae B9 (KPB9); compound at 5 μM): equipotent activity
Cc1ccc(NC(=O)c2cc(Cl)ccc2O)cc1C [Compound 31]	> 200	–	–	–	32	Colistin MIC against AB 4106 ([1]; compound at 5 μM, text of b125): 64; Colistin MIC against KPB9 (K. pneumoniae B9 (KPB9); compound at 5 μM): 16
O=C(Nc1cc(C(F)(F)F)cc(C(F)(F)F)c1)c1ccc(O)c(Cl)c1 [Compound 4, N-(3,5-bis(trifluoromethyl)phenyl)-3-chloro-4-hydroxybenzamide]	> 200	abolished activity	–	–	≤ 16	–
O=C(Nc1cc(C(F)(F)F)cc(C(F)(F)F)c1)c1cc(Cl)cc(Cl)c1O [Compound 14]	100	four-fold less active than 15	32	512	512	–
O=C(Nc1cc(C(F)(F)F)ccc1F)c1cc(Cl)ccc1O [Compound 28]	–	activity equivalent to IMD-0354	256	1024	1024	Colistin MIC against AB 3941 (AB 3941; compound at 5 μM): 2 µg/mL; Colistin MIC against AB 4112 (AB 4112; compound at 5 μM): 2 µg/mL; Colistin MIC against AB 4119 (AB 4119; compound at 5 μM): 1 µg/mL; Colistin MIC against AB 17978 mcr-1 (AB 17978 mcr-1; compound at 5 μM): 0.25 µg/mL; MIC (AB 4106): >200 µM; Colistin MIC against AB 3942 (AB 3942; compound at 5 μM): 2 µg/mL; Colistin MIC against AB 4106 [1, 3]: 8 µg/mL; Colistin MIC against AB 4106 [1, 4]: 2 µg/mL; Colistin MIC against AB 4106 [1, 5]: 2 µg/mL
O=C(Nc1cc(C(F)(F)F)cc(C(F)(F)F)c1)c1cc(-c2ccccc2)ccc1O [Compound 13]	–	–	32	256	512	Colistin MIC against AB 3941 (AB 3941; compound at 5 μM): 16 µg/mL; Colistin MIC against AB 4112 (AB 4112; compound at 5 μM): 8 µg/mL; Colistin MIC against AB 4119 (AB 4119; compound at 5 μM): 2 µg/mL; Colistin MIC against AB 17978 mcr-1 (AB 17978 mcr-1; compound at 5 μM): 4 µg/mL; MIC (AB 4106): >200 µM; Colistin MIC against AB 3942 (AB 3942; compound at 5 μM): 32 µg/mL; Colistin MIC against AB 4106 [1, 3]: 64 µg/mL; Colistin MIC against AB 4106 [1, 4]: 8 µg/mL; Colistin MIC against AB 4106 [1, 5]: 4 µg/mL
Nc1cc(NC(=O)c2cc(Cl)ccc2O)ccc1F [Compound 36, N-(3-amino-4-fluorophenyl)-5-chloro-2-hydroxybenzamide]	> 200	Neither compound displayed significant activity	–	–	≤ 16	–
COc1ccc(Cl)cc1C(=O)Nc1cc(C(F)(F)F)cc(C(F)(F)F)c1 [Compound 2]	> 200	abrogated activity	–	–	≤ 16	–
O=C(Nc1cc(C(F)(F)F)ccc1C(F)(F)F)c1cc(Cl)ccc1O [Compound 17]	> 200	retained activity against KPB9 and AB4106 equivalent to IMD-0354	128	512	1024	–
O=C(Nc1cc(Br)cc(Br)c1)c1cc(I)ccc1O [Compound 52, N-(3,5-dibromophenyl)-2-hydroxy-5-iodobenzamide]	> 200	–	256	1024	2048	Colistin MIC fold reduction, AB 3941 (AB 3941; compound at 5 μM): (1024) fold; Colistin MIC fold reduction, AB 4112 (AB 4112; compound at 5 μM): (2048) fold; Colistin MIC fold reduction, AB 4119 (AB 4119; compound at 5 μM): (512) fold; Colistin MIC fold reduction, AB 17978 mcr-1 (AB 17978 mcr-1; compound at 5 μM): (256) fold; Colistin MIC fold reduction, AB 3942 (AB 3942; compound at 5 μM): (≥4096) fold; ability to break colistin resistance, KPB9 (K. pneumoniae B9 (KPB9); compound at 500 nM): retained the ability to break colistin resistance
O=C(Nc1cc(C(F)(F)F)cc(C(F)(F)F)c1Br)c1cc(Cl)ccc1O [Compound 24]	–	–	512	2048	4096	Colistin MIC against AB 3941 (AB 3941; compound at 5 μM): 1 µg/mL; Colistin MIC against AB 4112 (AB 4112; compound at 5 μM): 0.25 µg/mL; Colistin MIC against AB 4119 (AB 4119; compound at 5 μM): 0.125 µg/mL; Colistin MIC against AB 17978 mcr-1 (AB 17978 mcr-1; compound at 5 μM): 0.25 µg/mL; MIC (AB 4106): >200 µM; Colistin MIC against AB 3942 (AB 3942; compound at 5 μM): 0.5 µg/mL; Colistin MIC against AB 4106 [1, 3]: 4 µg/mL; Colistin MIC against AB 4106 [1, 4]: 1 µg/mL; Colistin MIC against AB 4106 [1, 5]: 1 µg/mL and 0.5 µg/mL
O=C(Nc1cc(C(F)(F)F)cc(C(F)(F)F)c1)c1ccccc1O [Compound 6]	> 200	essentially equipotent activity to IMD-0354	–	512	512	–
O=C(Nc1cc(C(F)(F)F)cc(C(F)(F)F)c1)c1cc(Br)ccc1O [Compound 9]	> 100	essentially equipotent activity to IMD-0354	128	1024	1024	–
Cc1ccc(NC(=O)c2cc(Cl)ccc2O)cc1Br [Compound 32]	> 200	–	–	–	32	Colistin MIC against KPB9 (K. pneumoniae B9 (KPB9); compound at 5 μM): 8
O=C(Nc1ccc(C(F)(F)F)cc1C(F)(F)F)c1cc(Cl)ccc1O [Compound 18]	> 200	retained activity against KPB9 and AB4106 equivalent to IMD-0354	256	1024	1024	–
colistin [reference compound]	–	–	–	–	–	MIC of colistin alone, AB 3941 (AB 3941; absence of adjuvant): 1024 µg/mL; MIC of colistin alone, AB 4112 (AB 4112; absence of adjuvant): 2048 µg/mL; MIC of colistin alone, AB 4119 (AB 4119; absence of adjuvant): 1024 µg/mL; MIC of colistin alone, AB 17978 mcr-1 (AB 17978 mcr-1; absence of adjuvant): 64 µg/mL; MIC of colistin alone, AB 3942 (AB 3942; absence of adjuvant): > 2048 µg/mL
O=C(Nc1ccccc1Cl)c1cc(Cl)ccc1O [Compound 39]	> 200	less active	–	–	256	–
COc1ccc(NC(=O)c2cc(Cl)ccc2O)cc1 [Compound 38]	> 200	abolished activity	–	–	≤ 16	–
O=C(Nc1cc(C(F)(F)F)ccc1C(F)(F)F)c1cc(Cl)cc(Cl)c1O [Compound 61, N-(2,5-bis(trifluoromethyl)phenyl)-3,5-dichloro-2-hydroxybenzamide]	> 200	returned equipotent activity	–	–	≤ 16	–
O=C(Nc1ccc(F)cc1C(F)(F)F)c1cc(Cl)ccc1O [Compound 27]	> 200	–	–	–	256	Colistin MIC against KPB9 (K. pneumoniae B9 (KPB9); compound at 5 μM): 1
O=C(Nc1cc(C(F)(F)F)cc(C(F)(F)F)c1)c1cccc(Cl)c1 [Compound 1]	> 200	abrogated activity	–	–	≤ 16	–
